Tests used:
[1] = Force for the extension of individual damaged hairs by 15% before and after treatment (DiaStron Mtt670); design: species or system human; conditions: hair rinse A with 2.0% by weight of compound, pH 5, 30 min immersion, permanently waved and bleached Euro hair, measured wet, difference of 15% extension forces after and before treatment, at least 30 measurements
Protocol: Euro hair (hair from Europeans), left natural.
Preliminary Damage to the Hair
1×each permanent waving and bleaching using commercially available products.
Treatment of the damaged hair:
The damaged hair was treated with the exemplary formulations.
For each test formulation, 30 damp individual hairs were measured. The experimental procedure was as follows:
1. The predamaged hairs were wetted with water and using the fully automatic device Mtt670 from DiaStron the force was measured which was necessary for 15% extension.
2. For recovery, the hairs were immersed for at least 2 h in a water bath.
3. The hairs were then immersed for 30 min in the test formulation and then each hair was rinsed for about 7 s under running water.
4. The hairs were left overnight (=12 h) to dry in air.
5. The force which was necessary in order to extend the treated hair by 15% was again measured as described above, after wetting with water.
6. The difference between the 15% extension forces before and after treatment with the test formulation was calculated and used as a measure of the improvement in the mechanical resistivity of the damaged hairs by the alkylguanidine compounds.

[2] = Determination of the protein loss of predamaged hair (extraction with Na lauryl ether sulfate, UV absorption at 295 nm); design: species or system human; conditions: hair rinse of Tab. 3 with 2.0% active, pH 5.0, 30 min; predamaged hair (permanently waved and bleached); extraction with 8% Na lauryl ether sulfate 3 h at room temperature; at least three measurements
Text: The more severely damaged the hair, e.g., by permanent waving or bleaching, the higher the concentration of water-soluble protein fragments/peptides in the hair which can be extracted with water or surfactants. Extraction with surfactants simulates the washing of the hair by means of a shampoo. Also during hair washing, damaged hair loses more peptides than healthy hair.
For illustration, the hair was predamaged. For this, the hair was permanently waved and bleached 1×each
The predamaged strands of hair (weight: about 4 g) were immersed in the test formulation (time of action: 30 min) and then rinsed off for 1 min under running tap water (T=35° C.).
They were then left to dry in the air for 12 hours.
Determination of the Protein Loss:
About 0.5 g of hair+about 15 ml of Na lauryl ether sulfate (8%) were shaken at room temperature for 3 h. The solution was subsequently decanted and centrifuged. The protein concentration of the solution was then determined photometrically by measurement of the UV absorption at 295 nm. A keratin hydrolysate was used as a standard (M=1000, Promois WK-H, Seiwa Kasei).

SMILES	Force 15%after force 15%before ([1]; Table 2B) [mN]	Force 15%after force 15%before ([1]; Table 2A) [mN]	Protein loss [2]
CC(=O)O.CCCCN(CCCC)C(=N)N [HSP A where R^1 = C4; R^2 = C4; acetate, N,N-dibutylguanidinium acetate]	2.16	–	–
CC(O)C(=O)O.CCCCCCCCNC(=N)N [HSP A where R^1 = H; R^2 = C8; lactate, octylguanidinium lactate]	3.65	–	–
CC(=O)O.CC(=O)O.N=C(N)NCCCCCCNC(=N)N [hexane-1,6-diguanidinium acetate]	3.45	–	–
CC(=O)O.CCCCCCCCNC(=N)N [HSP A where R^2 = C8, octylguanidinium acetate]	–	3.51	26.8 mg/g of hair
